The results in this text go back to patent publication US20110065663A1, “ANTI-CANCER COMBINATION THERAPY” (Katholieke Universiteit Leuven, K.U. Leuven R&D, priority 2008, published 2011).

Where “and” joins values, the source holds several entries; their conditions need not be identical. Identical values can stand only once. Like-named read-outs stand apart in the source and are kept apart here.

Type in all cases: cell-based, human
Test [1] concerns MCF-7 cells. The test is described as follows: Gemcitabine metabolite distribution in MCF-7 cells (HPLC). Particulars: 24 h; 1 μCi; FIG. 5. As for the experimental part: MCF-7 and MCF-7/HYOR cells were seeded and treated with 1 μCi of nucleoside with and without TPi as described above. […] Next, the cells were incubated in 0.5 ml absolute ice-cold methanol and kept on ice for 20 minutes. After centrifugation for 20 minutes at 13,000 rpm, the supernatant was subjected to HPLC analysis. The nucleobases, nucleosides and nucleotides in the supernatant were separated by a Partisphere 10 SAX anion exchange column (Whatmann International Ltd., Maidstone, England) as described earlier (Balzarini J. et al., AIDS 2002; 16:2159-63), while the nucleobases and nucleosides present in the collected medium were separated using an RP-8 column. The amount of compound incorporated into nucleic acids was measured as described above.

In another test the test system is MCF-7/HYOR cell cultures. The test is described as follows: Nucleoside metabolism experiments, distribution of drug-derived radiolabel in MCF-7/HYOR cell cultures. The note with it: 24 h; 1 μCi; FIG. 5. Here is the method:
Next, the cells were trypsinized, transferred to Eppendorf tubes and centrifuged for 10 minutes at 1,400 rpm. The pellet was resuspended in 1 ml absolute ice-cold methanol and kept on ice for 20 minutes. After centrifugation for 20 minutes at 13,000 rpm the pellet was washed twice with methanol, resuspended in methanol and transferred to scintillation vials containing 9 ml of Ready safe liquid scintillation reagent (‘Hisafe 3’, Perkin Elmer, Waltham, Mass.). The radioactivity was measured by a Liquid scintillation analyzer (2300 TR, Packard, Canberra, Australia). […] Next, the cells were incubated in 0.5 ml absolute ice-cold methanol and kept on ice for 20 minutes. After centrifugation for 20 minutes at 13,000 rpm, the supernatant was subjected to HPLC analysis. […] The amount of compound incorporated into nucleic acids was measured as described above.

The test system of test [2] is MCF-7/HYOR cells. The test is described as follows: Flow cytometry, cell cycle arrest in MCF-7/HYOR cells. In general terms: In flow cytometry, cells or beads pass a laser one at a time.
The next test concerns MDA-MB-231 cells. As to the kind of experiment: Cytostatic activity in M. hyorhinis-infected MDA-MB-231 breast carcinoma cells.
The subject of test [3] is MCF-7 cells. As to the kind of experiment: Tumor cell proliferation assay, uninfected MCF-7 cells. The note with it: for IC50: Homo sapiens, uninfected MCF-7. As for the experimental part: MCF-7 and MCF-7/HYOR cells were seeded in 48-well plates at 10,000 cells/cm^2. […] of the test compounds (5FU, 5′DFUR, CIdUrd, BrdUrd, IdUrd and TFT) with or without 10 μM TPi were added. The cells were incubated for another 4 days, trypsinized and counted by a Coulter counter (Analis, Suarlée, Belgium). In some experiments, the antibiotic plasmocin was added one or three days before addition of the test compounds.

A further test concerns OST.TK^− cells. The test is described as follows: Cytostatic activity in M. hyorhinis-infected osteosarcoma cells.
Test [4] concerns MCF-7 cells. As to the kind of experiment: Flow cytometry, cell cycle arrest in MCF-7 cells.
Test [5] has as its system MCF-7/HYOR cells. As to the kind of experiment: Tumor cell proliferation assay, M. hyorhinis-infected MCF-7 cells. The note with it: for IC50: Homo sapiens, MCF7, M. hyorhinis-infected MCF-7. Here is the method: Mycoplasma hyorhinis (ATCC 17981) was obtained from the American Type Culture Collection (ATCC, Manassas, Va.). The freeze-dried bacteria were reconstituted by adding 1 ml of DMEM. […] The co-culture of MCF-7 cells and M. hyorhinis was maintained under the same conditions as the uninfected MCF-7 cells. […] The cells were incubated for another 4 days, trypsinized and counted by a Coulter counter (Analis, Suarlée, Belgium).

Setting [6] is: IC50 in the absence of TPi to IC50 in the presence of TPi.

Regarding `Nc1ccn([C@@H]2O[C@H](CO)[C@@H](O)C2(F)F)c(=O)n1` [gemcitabine, 2′,2′-difluorodeoxycytidine], the “Activation (phosphorylation) of gemcitabine in MCF-7 cells” value in the test on MCF-7 cells [1] is listed as “readily activated”. Further, the “Active (phosphorylated) metabolites of gemcitabine in M. hyorhinis infected MCF-7 cells” value in the test with MCF-7/HYOR cell cultures is “no active metabolite can be detected”. Moreover, the “Higher concentration needed to cause a similar S-phase arrest than in MCF-7” value in the test on MCF-7/HYOR cells [2] turned out to be 25 fold. The entries for the “Reduction in the cytostatic activity upon M. hyorhinis infection” value with MDA-MB-231 cells and in the test on OST.TK^− cells were 40 fold and 70 fold, respectively. The IC50 was determined as 7.3 ± 3.6 nM in the test with MCF-7 cells [3] (MCF7, 96 h, no TPi, 4 days, read-out: IC50 MCF-7 As such); 6.3 ± 2.2 nM with MCF-7 cells [3] (MCF7, with 10 μM TPi, read-out: IC50 MCF-7 +TPi (10 μM)); 80 ± 28 nM with MCF-7/HYOR cells [5] (no TPi, no plasmocin, read-out: IC50 MCF-7/HYOR As such); 5.8 ± 1.2 nM in the test on MCF-7/HYOR cells [5] (with 10 μM TPi, read-out: IC50 MCF-7/HYOR +TPi (10 μM)). In addition, the “Ratio (1)/(2) MCF-7” value in the test on MCF-7 cells [3] (setting [6]) was 1.2. Further, the “Concentration causing cell cycle arrest in the S-phase” value in the test on MCF-7 cells [4] came out at 0.2 µM. In the test on MCF-7/HYOR cells [5] (setting [6]), the “Ratio (1)/(2) MCF-7/HYOR” value came to 14. Moreover, the “Reduction of cytostatic activity in infected MCF-7/HYOR compared to control MCF-7 cells” value with MCF-7/HYOR cells [5] (M. hyorhinis infection) is 10 fold and 14 fold. Further, the “Anti-proliferative activity in MCF-7/HYOR after three days pre-incubation with doxycycline” value in the test with MCF-7/HYOR cells [5] (doxycycline, 3 days) is “restores”. Moreover, in the test on MCF-7/HYOR cells [5] (plasmocin 25 μg/ml, 3 days), the “Anti-proliferative activity in MCF-7/HYOR after three days pre-incubation with plasmocin” value is “restores”.
